{
  "source": "patent US20210127709A1",
  "about": "“FEED ADDITIVE COMPRISING A TRP MODULATOR” (PerformaNat GmbH, priority 2018, published 2021)",
  "tested_on": "ruminal epithelium",
  "assay": "Ussing chamber: transepithelial current and conductance",
  "format": "cell-based",
  "conditions": "sheep ruminal epithelium, mucosal addition, short-circuit mode, 37° C.",
  "source_text": "All sheep were slaughtered in accordance with German laws for the protection of animals. Removal of tissue occurred directly after death, was stripped and transported to the laboratory in a warm and gassed transport buffer.\nThe tissue was mounted into conventional Ussing chambers with an exposure area of 3.14 cm^2 (as described in (Martens and Gabel, 1988, Transport of Na and Cl across the epithelium of ruminant forestomachs: rumen and omasum. A review. Comparative Biochemistry and Physiology Part A: Physiology 90, 569-575)). The chambers contained 16 ml of mucosal and serosal buffer, which was circulated with a gas lift system and warmed to 37° C. with a water jacket.\nAfter ten minutes the chambers were clamped to short circuit mode (Mussler Scientific Instruments, Aachen, Germany). Transepithelial current (Isc) and conductance (Gt) were measured continuously.\nAfter an equilibration time of about 30 min under short-circuit conditions, the Ussing chambers were divided into two groups, depending on the transepithelial conductance of the tissues inside the chambers. Group 1 (TRP-group) and Group 2 (TRP-PG-group.)\nDepending on the group 4.8 μl of TRP agonist combined with propylene glycol or 2.4 mg of TRP Agonist was added to the mucosal side of the tissues. Transepithelial current (Isc) and transepithelial conductance (Gt) were measured continuously. […]",
  "data": [
    {"molecule": "CC1CCC(C(C)C)C(O)C1", "note": "(centres unmarked) [TRP (menthol), menthol]", "values": [
      {"measurement": "Transepithelial conductance (Gt), maximum increase after addition, mean", "result": "+0.563"},
      {"measurement": "Transepithelial current (Isc), maximum increase after addition, mean", "result": "+0.727"}
    ]}
  ]
}
